# Reference: PMC12249711, “Comprehensive Evaluation of 1H-Isoindole-1,3(2H)-Dione Derivatives: Pharmacokinetic Studies and Analgesic Potential in Various Pain Models” (International Journal of Molecular Sciences, 2025)
# How the values were obtained:
# mice = assay: Streptozotocin-induced diabetic neuropathy, hot plate test (thermal hyperalgesia); assay type: in vivo, Albino Swiss mice; settings: diabetic (STZ) mice, 10 mg/kg i.p.; for Analgesic activity (hot plate): vs pre-drug latency
# Description: The induction of diabetes neuropathy in mice was achieved through the administration of streptozotocin (STZ), dissolved in PBS at a dose of 200 mg/kg in a constant volume of 0.1 mL/10 g of mouse body weight, intraperitoneally; (n = 50). Blood glucose levels were measured immediately prior to the administration of streptozotocin and 14 and 21 days following this administration in order to confirm the presence of hyperglycemia. For this purpose, 5 µL of blood was drawn from the tail vein of the mice using a strip glucose meter (AccuChek Active, Roche, Boulogne-Billancourt, France).
# To assess increased sensitivity to thermal stimuli, we used a hot plate testing apparatus (Panlab/Harvard Apparatus, Cornellà de Llobregat, Spain), following the methodology originally described by. In this procedure, after determining the baseline pain response time, 30 min after drug administration, mice were placed on a hot plate maintained at 55 °C and monitored for pain-related behaviors such as licking their hind paws or jumping. To avoid potential damage to paw tissue, a time limit of 45 s was set.
# [1] = parameters: method as in PMID 35396875; settings: initial in vivo screening; cited from earlier work
compound,measurement,setting,value
O=C1c2ccccc2C(=O)N1CC(O)CN1CCN(c2cccc(C(F)(F)F)c2)CC1 (centres unmarked) [Compound F3],"Pain response latency time after compound administration (hot plate, 55 °C)",mice,24.24 ± 1.46 s
same,Analgesic activity (hot plate),mice,42.92%
COc1ccccc1N1CCN(CC(O)CN2C(=O)c3ccccc3C2=O)CC1 (centres unmarked) [Compound F2],"Pain response latency time after compound administration (hot plate, 55 °C)",mice,30.36 s
same,Analgesic activity (hot plate),mice,49.33%
O=C1c2ccccc2C(=O)N1CC(O)CN1CCN(c2ccccc2)CC1 (centres unmarked) [Compound F1],"Pain response latency time after compound administration (hot plate, 55 °C)",mice,25.59 ± 1.84 s
same,Analgesic activity (hot plate),mice,56.6%
O=C1c2ccccc2C(=O)N1CC(O)CN1CCN(C(c2ccccc2)c2ccccc2)CC1 (centres unmarked) [Compound F4],"Activity in central (supraspinal) pain model, hot plate test",[1],inactive
same,"Pain response latency time after compound administration (hot plate, 55 °C)",mice,did not affect the latency time
